These results are taken from US8377974B2 (Millennium Pharmaceuticals, Inc., priority 2004, dated 2013).

T1 sequence (P00742 235-488 limits assumed): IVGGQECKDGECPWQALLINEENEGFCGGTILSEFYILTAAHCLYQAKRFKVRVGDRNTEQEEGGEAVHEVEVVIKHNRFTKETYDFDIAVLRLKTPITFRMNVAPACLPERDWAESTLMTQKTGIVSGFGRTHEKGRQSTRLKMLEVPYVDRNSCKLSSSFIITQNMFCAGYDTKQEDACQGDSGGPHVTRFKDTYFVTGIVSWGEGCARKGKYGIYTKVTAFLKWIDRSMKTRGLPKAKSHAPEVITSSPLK
T1 sequence (P00742 41-179 partner limits assumed): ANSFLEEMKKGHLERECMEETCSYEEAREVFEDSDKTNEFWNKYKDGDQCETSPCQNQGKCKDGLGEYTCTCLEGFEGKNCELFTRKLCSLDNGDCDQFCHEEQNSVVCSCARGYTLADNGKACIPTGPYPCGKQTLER

This experiment addresses T1, human plasma protein factor Xa (Homo sapiens, UniProt P00742).
T1 construct: measure proteolytic activity of the enzyme (factor Xa); purchased Haematologic Technologies (Essex Junction, Vt.); host or cells: human plasma
The experiment is described as follows: Factor Xa IC50 determination: cleavage of paranitroanilide substrate S-2765 in 96-well plates. Type of experiment: biochemical. The note with it: fXa 1 nM, S-2765 100 μM, Tris buffered saline pH 7.4, room temperature. An outline of the steps: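 Initial rates of S-2765 (100 μM final) cleavage, read at 405 nm for 2 min, fitted with a four-parameter equation to give IC50. Enzyme: 1 nM human plasma fXa, 5 min room-temperature preincubation with inhibitor (0.01 nM–10 μM) in 20 mM Tris, 150 mM NaCl, 5 mM CaCl2, 0.1% BSA, 5% DMSO, pH 7.4; duplicates.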
What is called IC50 is the concentration that inhibits the measured activity by half. A higher IC50 goes with lower potency. In turn, `N=C(c1ccc(-c2nc(CNC(=O)c3ccc(Cl)s3)cs2)cc1)N1CCCC1` [Example 352, 5-Chloro-N-((2-(4-(imino(pyrrolidin-1-yl)methyl)phenyl)thiazol-4-yl)methyl)thiophene-2-carboxamide] gave an IC50 of at most 100 nM.

`N=C(c1ccc(-c2nc(CNC(=O)c3ccc(Cl)s3)cs2)cc1)N1CCCCC1` [Example 353, 5-Chloro-N-((2-(4-(imino(piperidin-1-yl)methyl)phenyl)thiazol-4-yl)methyl)thiophene-2-carboxamide] displayed a 50% inhibitory concentration (IC50) of 100 to 500 nM.

In turn, `CCOC(=O)C1CCN(C(=N)c2ccc(-c3nc(CNC(=O)c4ccc(Cl)s4)cs3)cc2)CC1` [Example 354, Ethyl 1-((4-(4-((2-chlorothiophene-5-carboxamido)methyl)thiazol-2-yl)phenyl)(imino)methyl)piperidine-4-carboxylate] gave a half-inhibitory concentration (IC50) of 100 to 500 nM.

The compound `CN(C)CCN(C)C(=N)c1ccc(-c2nc(CNC(=O)c3ccc(Cl)s3)cs2)cc1` [Example 355, N-((2-(4-(N-(2-(Dimethylamino)ethyl)-N-methylcarbamimidoyl)phenyl)thiazol-4-yl)methyl)-5-chlorothiophene-2-carboxamide] returned a half-maximal inhibitory concentration (IC50) of at least 500 nM.

Regarding `CN(Cc1ccco1)C(=N)c1ccc(-c2nc(CNC(=O)c3ccc(Cl)s3)cs2)cc1` [Example 356, N-((2-(4-(N-(Furan-2-ylmethyl)-N-methylcarbamimidoyl)phenyl)thiazol-4-yl)methyl)-5-chlorothiophene-2-carboxamide], the IC50 is at least 500 nM.

On to `C#CCN(C)C(=N)c1ccc(-c2nc(CNC(=O)c3ccc(Cl)s3)cs2)cc1` [Example 357, N-((2-(4-(N-Methyl-N-(prop-2-ynyl)carbamimidoyl)phenyl)thiazol-4-yl)methyl)-5-chlorothiophene-2-carboxamide], for which the IC50 was at least 500 nM.

With `CNC(=N)c1ccc(-c2nc(CNC(=O)c3ccc(Cl)s3)cs2)cc1` [Example 358, N-((2-(4-(N-Methylcarbamimidoyl)phenyl)thiazol-4-yl)methyl)-5-chlorothiophene-2-carboxamide], the IC50 was at least 500 nM.

The compound `N=C(c1ccc(-c2coc(CNC(=O)c3ccc(Cl)s3)n2)cc1)N1CCCC1` [Example 359, 5-Chloro-N-((4-(4-(imino(pyrrolidin-1-yl)methyl)phenyl)oxazol-2-yl)methyl)thiophene-2-carboxamide] came in with an IC50 of 100 to 500 nM.

As to `CN(C)C(=N)c1ccc(-c2csc(CNC(=O)c3ccc(Cl)s3)n2)cc1` [Example 360, N-((4-(4-(N,N-Dimethylcarbamimidoyl)phenyl)thiazol-2-yl)methyl)-5-chlorothiophene-2-carboxamide], the IC50 is at least 500 nM.

Consider `CN1CCN=C1c1ccc(-c2csc(CNC(=O)c3ccc(Cl)s3)n2)cc1` [Example 361, 5-Chloro-N-((4-(4-(1-methyl-4,5-dihydro-1H-imidazol-2-yl)phenyl)thiazol-2-yl)methyl)thiophene-2-carboxamide], for which the half-maximal inhibitory concentration (IC50) was at least 500 nM.

`N=C(c1ccc(-c2csc(CNC(=O)c3ccc(Cl)s3)n2)cc1)N1CCCC1` [Example 362, 5-Chloro-N-((4-(4-(imino(pyrrolidin-1-yl)methyl)phenyl)thiazol-2-yl)methyl)thiophene-2-carboxamide] yielded an IC50 of at least 500 nM.

Take `N=C(c1ccc(-c2csc(CNC(=O)c3ccc(Cl)s3)n2)cc1)N1CCCCC1` [Example 363, 5-Chloro-N-((4-(4-(imino(piperidin-1-yl)methyl)phenyl)thiazol-2-yl)methyl)thiophene-2-carboxamide]: the IC50 was at least 500 nM.

`CN(C)C(=N)c1ccc(-n2cnc(CNC(=O)c3ccc(Cl)s3)c2)cc1` [Example 364, N-((1-(4-(N,N-Dimethylcarbamimidoyl)phenyl)-1H-imidazol-4-yl)methyl)-5-chlorothiophene-2-carboxamide] yielded a half-inhibitory concentration (IC50) of at most 100 nM.

Regarding `CN1CCN=C1c1ccc(-n2cnc(CNC(=O)c3ccc(Cl)s3)c2)cc1` [Example 365, 5-Chloro-N-((1-(4-(1-methyl-4,5-dihydro-1H-imidazol-2-yl)phenyl)-1H-imidazol-4-yl)methyl)thiophene-2-carboxamide], the IC50 was at most 100 nM.

`N=C(c1ccc(-n2cnc(CNC(=O)c3ccc(Cl)s3)c2)cc1)N1CCC1` [Example 366, N-((1-(4-(Azetidin-1-yl(imino)methyl)phenyl)-1H-imidazol-4-yl)methyl)-5-chlorothiophene-2-carboxamide] displayed an IC50 of at most 100 nM.

Turning to `N=C(c1ccc(-n2cnc(CNC(=O)c3ccc(Cl)s3)c2)cc1)N1CCCC1` [Example 367, 5-Chloro-N-((1-(4-(imino(pyrrolidin-1-yl)methyl)phenyl)-1H-imidazol-4-yl)methyl)thiophene-2-carboxamide], the half-maximal inhibitory concentration (IC50) is at most 100 nM.

As to `N=C(c1ccc(-n2cnc(CNC(=O)c3ccc(Cl)s3)c2)cc1)N1CCCCC1` [Example 368, 5-Chloro-N-((1-(4-(imino(piperidin-1-yl)methyl)phenyl)-1H-imidazol-4-yl)methyl)thiophene-2-carboxamide], the IC50 was at most 100 nM.

`CN(C)C(=N)c1ccc(-c2cncc(CNC(=O)c3ccc(Cl)s3)c2)cc1` [Example 369, N-((5-(4-(N,N-Dimethylcarbamimidoyl)phenyl)pyridin-3-yl)methyl)-5-chlorothiophene-2-carboxamide] gave an IC50 of at most 100 nM.

`CN1CCN=C1c1ccc(-c2cncc(CNC(=O)c3ccc(Cl)s3)c2)cc1` [Example 370, 5-Chloro-N-((5-(4-(1-methyl-4,5-dihydro-1H-imidazol-2-yl)phenyl)pyridin-3-yl)methyl)thiophene-2-carboxamide]: the IC50 was at most 100 nM.

The compound `N=C(c1ccc(-c2cncc(CNC(=O)c3ccc(Cl)s3)c2)cc1)N1CCC1` [Example 371, N-((5-(4-(Azetidin-1-yl(imino)methyl)phenyl)pyridin-3-yl)methyl)-5-chlorothiophene-2-carboxamide] had an IC50 of at most 100 nM.

In turn, `N=C(c1ccc(-c2cncc(CNC(=O)c3ccc(Cl)s3)c2)cc1)N1CCCC1` [Example 372, 5-Chloro-N-((5-(4-(imino(pyrrolidin-1-yl)methyl)phenyl)pyridin-3-yl)methyl)thiophene-2-carboxamide] returned an IC50 of at most 100 nM.

Turning to `N=C(c1ccc(-c2cncc(CNC(=O)c3ccc(Cl)s3)c2)cc1)N1CCCCC1` [Example 373, 5-Chloro-N-((5-(4-(imino(piperidin-1-yl)methyl)phenyl)pyridin-3-yl)methyl)thiophene-2-carboxamide], the 50% inhibitory concentration (IC50) is at most 100 nM.

As to `CN(C)C(=N)c1ccc(-c2ccc(F)c(CNC(=O)c3ccc(Cl)s3)c2)cc1` [Example 374, N-((5-(4-(N,N-Dimethylcarbamimidoyl)phenyl)-2-fluorophenyl)methyl)-5-chlorothiophene-2-carboxamide], the IC50 is at most 100 nM.

`CN1CCN=C1c1ccc(-c2ccc(F)c(CNC(=O)c3ccc(Cl)s3)c2)cc1` [Example 375, 5-Chloro-N-((5-(4-(1-methyl-4,5-dihydro-1H-imidazol-2-yl)phenyl)-2-fluorophenyl)methyl)thiophene-2-carboxamide] had an IC50 of at most 100 nM.

Regarding `N=C(c1ccc(-c2ccc(F)c(CNC(=O)c3ccc(Cl)s3)c2)cc1)N1CCCC1` [Example 376, 5-Chloro-N-((5-(4-(imino(pyrrolidin-1-yl)methyl)phenyl)-2-fluorophenyl)methyl)thiophene-2-carboxamide], the IC50 is at most 100 nM.

Take `CN(C)C(=N)c1ccc(-c2cc(CNC(=O)c3ccc(Cl)s3)ccc2F)cc1` [Example 377, N-((3-(4-(N,N-Dimethylcarbamimidoyl)phenyl)-4-fluorophenyl)methyl)-5-chlorothiophene-2-carboxamide]: the IC50 was at most 100 nM.

As to `CN1CCN=C1c1ccc(-c2cc(CNC(=O)c3ccc(Cl)s3)ccc2F)cc1` [Example 378, 5-Chloro-N-((3-(4-(1-methyl-4,5-dihydro-1H-imidazol-2-yl)phenyl)-4-fluorophenyl)methyl)thiophene-2-carboxamide], the IC50 was 100 to 500 nM.

For `N=C(c1ccc(-c2cc(CNC(=O)c3ccc(Cl)s3)ccc2F)cc1)N1CCCC1` [Example 379, 5-Chloro-N-((3-(4-(imino(pyrrolidin-1-yl)methyl)phenyl)-4-fluorophenyl)methyl)thiophene-2-carboxamide], the IC50 is at most 100 nM.

For the compound `CN(C)C(=N)c1ccc(-c2cccc(CNC(=O)c3ccc(Cl)s3)c2)cc1` [Example 380, N-((3-(4-(N,N-Dimethylcarbamimidoyl)phenyl)phenyl)methyl)-5-chlorothiophene-2-carboxamide], the IC50 was at most 100 nM.

In turn, `CN1CCN=C1c1ccc(-c2cccc(CNC(=O)c3ccc(Cl)s3)c2)cc1` [Example 381, 5-Chloro-N-((3-(4-(1-methyl-4,5-dihydro-1H-imidazol-2-yl)phenyl)phenyl)methyl)thiophene-2-carboxamide] registered an IC50 of at most 100 nM.

Take `N=C(c1ccc(-c2cccc(CNC(=O)c3ccc(Cl)s3)c2)cc1)N1CCCC1` [Example 382, 5-Chloro-N-((3-(4-(imino(pyrrolidin-1-yl)methyl)phenyl)phenyl)methyl)thiophene-2-carboxamide]: the IC50 is at most 100 nM.

Compound `CN1CCCN(c2ccc(-n3cc(CNC(=O)c4ccc(Cl)s4)nn3)cn2)CC1` [Example 383, 5-Chloro-N-((1-(6-(4-methyl-1,4-diazepan-1-yl)pyridin-3-yl)-1H-1,2,3-triazol-4-yl)methyl)thiophene-2-carboxamide] gave an IC50 of at most 100 nM.

`O=C(NCc1cn(-c2ccc(N3CCCNCC3)nc2)nn1)c1ccc(Cl)s1` [Example 384, N-((1-(6-(1,4-Diazepan-1-yl)pyridin-3-yl)-1H-1,2,3-triazol-4-yl)methyl)-5-chlorothiophene-2-carboxamide] had an IC50 of at most 100 nM.

The compound `O=C(NCc1cn(-c2ccc(N3CCCOCC3)nc2)nn1)c1ccc(Cl)s1` [Example 385, N-((1-(6-(1,4-Oxazepan-4-yl)pyridin-3-yl)-1H-1,2,3-triazol-4-yl)methyl)-5-chlorothiophene-2-carboxamide] yielded an IC50 of 100 to 500 nM.
